From patent publication US7557133B2, “Caspase inhibitors containing isoxazoline ring” (LG Life Sciences Ltd., priority 2003, dated 2009)

Key:
[1] = molecular target: T1, caspase-1 (Homo sapiens, UniProt P29466); assay: Caspase-1 inhibitory effect (fluorescent substrate AcYVAD-AFC); assay type: biochemical; conditions: pH 7.5; 25° C., 50 μM AcYVAD-AFC, 10 nM caspase-1; read-out: Caspase-1 Kobs/[I] (converted)
T1 construct: p10 and p20 subunits (Thornberry, N. A. et al, Nature, 1992, 356, 768) were expressed in E. coli; made in house; host or cells: E. coli
T1 sequence (P29466 120-297 limits assumed): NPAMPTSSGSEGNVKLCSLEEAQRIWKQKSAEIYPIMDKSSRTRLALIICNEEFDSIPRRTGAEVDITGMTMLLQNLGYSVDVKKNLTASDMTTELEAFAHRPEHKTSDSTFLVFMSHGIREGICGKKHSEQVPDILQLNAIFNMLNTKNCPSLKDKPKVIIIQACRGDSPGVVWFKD
T1 sequence (P29466 317-404 limits assumed): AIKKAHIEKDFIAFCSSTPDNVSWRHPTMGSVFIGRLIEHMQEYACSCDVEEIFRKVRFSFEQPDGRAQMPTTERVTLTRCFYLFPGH
Description: (§1) Caspase-1 and caspase-8 known as cysteine proteases in the form of α2β2 were expressed, purified, and activated by modifying a method known in Thornberry, N. A. et al, Nature, 1992, 356, 768. Thornberry, N. A. Methods in Enzymology, 1994, 244, 615. Walker, N. P. C. et al. Cell, 1994, 78, 343, and caspase-9 was also purified by a similar method, and the inhibitory activity against them was tested. Briefly describing, p10 and p20 subunits (Thornberry, N. A. et al, Nature, 1992, 356, 768) were expressed in E. coli and purified by nickel column and anionic exchange chromatography to give caspase-1, caspase-8 and caspase-9. The fluorescent substrate AcYVAD-AFC for thus obtained caspase-1, AcDEVD-AFC for caspase-8, and AcLEHD-AFC for caspase-9 were used for determining specific activity of the synthesized inhibitors. The enzyme reaction was carried out at 25° C. with various concentrations of the inhibitors in a buffer solution containing 50 mM HEPES(pH 7.50), 10% (w/v) sucrose, 0.1% (w/v) CHAPS, 100 mM NaCl, 1 mM EDTA, and 10 mM DTT in the presence of 50 μM AcYVAD-AFC for 10 nM caspase-1, 50 μM AcDEVD-AFC for 2.1 nM caspase-8, and 150 μM AcLEHD-AFC for 200 nM caspase-9. The inhibitory constants Ki and Kobs of the inhibitors were determined by measuring the reaction velocity with the time lapse using a fluorescent spectrometer and by obtaining the initial rate constant. Ki was calculated from the Lineweaver Burk Plot, and Kobs from the following Equation 1. Kobs=−ln(1−At/Aoo)/t Equation 1
(§2) At means cleavate rate (%) at time t, and
(§3) Aoo means the maximum cleavage rate (%).
(§4) Spectra MAX GeminiXS Fluorescent Spectrometer of Molecular Device Co. was used at the excitation wavelength of 405 nm and the emission wavelength of […].

[2] = molecular target: T2, caspase-8 (Homo sapiens, UniProt Q14790); assay: Caspase-8 inhibitory effect (fluorescent substrate AcDEVD-AFC); assay type: biochemical; conditions: pH 7.5; 25° C., 50 μM AcDEVD-AFC, 2.1 nM caspase-8; read-out: Caspase-8 Kobs/[I] (converted)
T2 construct: p10 and p20 subunits (Thornberry, N. A. et al, Nature, 1992, 356, 768) were expressed in E. coli; made in house; host or cells: E. coli
Description: as §1, §2, §3, §4

[3] = test system: Jurkat cell (ATCC TIB-152); assay: Jurkat cell apoptosis by Fas antibody, WST-1 method; assay type: cell-based; conditions: Homo sapiens, Jurkat, apoptosis using Fas antibody, WST-1
Description: The […] inhibitory activity of the inhibitors was determined by subjecting Jurkat cell (ATCC TIB-152) to apoptosis using Fas antibody (Upstate Biotech 05-201) and by detecting the color change according to the WST-1 method known in Francoeur A. M. and Assalian A. (1996) Biochemica 3, 19-25 to observe the amount of alive Jurkat cells when the cells were treated by the inhibitor. Spectra MAX 340 Spectrometer of Molecular Device Co. was used at the absorbance wavelength of 440 nm.

[4] = molecular target: T3, caspase-9 (Homo sapiens, UniProt P55211); assay: Caspase-9 inhibitory effect (fluorescent substrate AcLEHD-AFC); assay type: biochemical; conditions: pH 7.5; 25° C., 150 μM AcLEHD-AFC, 200 nM caspase-9; read-out: Caspase-9 Kobs/[I] (converted)
T3 construct: p10 and p20 subunits (Thornberry, N. A. et al, Nature, 1992, 356, 768) were expressed in E. coli; made in house; host or cells: E. coli
T3 sequence (P55211 1-315 limits assumed): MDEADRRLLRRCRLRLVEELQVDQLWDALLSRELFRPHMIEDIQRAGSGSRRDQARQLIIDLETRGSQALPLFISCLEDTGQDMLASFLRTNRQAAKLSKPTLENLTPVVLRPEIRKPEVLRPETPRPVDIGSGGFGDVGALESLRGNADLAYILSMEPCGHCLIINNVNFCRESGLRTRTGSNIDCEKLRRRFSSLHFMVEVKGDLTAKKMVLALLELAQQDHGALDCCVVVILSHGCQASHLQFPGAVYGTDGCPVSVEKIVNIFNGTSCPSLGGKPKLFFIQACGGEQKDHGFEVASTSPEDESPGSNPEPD
T3 sequence (P55211 331-416 limits assumed): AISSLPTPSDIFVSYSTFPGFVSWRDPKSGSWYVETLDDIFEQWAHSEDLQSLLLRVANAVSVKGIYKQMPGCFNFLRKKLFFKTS
Description: as §1, with “The enzyme reaction was carried out at 25° C. with various concentrations of the inhibitors in a buffer solution containing 50 mM HEPES(pH 7.50), 10% (w/v) sucrose, 0.1% (w/v) CHAPS, 100 mM NaCl, 1 mM EDTA, and 10 mM DTT in the presence of 50 μM AcYVAD-AFC for 10 nM caspase-1, 50 μM AcDEVD-AFC for 2.1 nM caspase-8, and 150 μM AcLEHD-AFC for 200 nM caspase-9.” left out, “Kobs=−ln(1−At/Aoo)/t Equation 1” left out

T2 sequence (Q14790 217-374 limits assumed, species assumed): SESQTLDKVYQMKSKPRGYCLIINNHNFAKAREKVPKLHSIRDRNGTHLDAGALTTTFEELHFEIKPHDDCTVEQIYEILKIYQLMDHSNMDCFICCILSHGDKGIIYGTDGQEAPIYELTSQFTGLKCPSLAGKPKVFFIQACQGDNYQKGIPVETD
T2 sequence (Q14790 385-479 limits assumed, species assumed): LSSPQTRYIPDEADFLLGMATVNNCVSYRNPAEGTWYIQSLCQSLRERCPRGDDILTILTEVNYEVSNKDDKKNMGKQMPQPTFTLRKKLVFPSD

In the case of `CCC1(C(=O)N[C@@H](CC(=O)O)C(=O)COc2c(F)c(F)cc(F)c2F)CC(COc2cccc3ccccc23)=NO1` (stereo partly drawn) [Ipp, (3S)-3-[({5-Ethyl-3-[(1-naphthyloxy)methyl]-4,5-dihydro-5-isoxazolyl]carbonyl)amino]-4-oxo-5-(2,3,5,6-tetrafluorophenoxy)pentanoic acid], the kinact/KI [1] is reported as 38300 M⁻¹ s⁻¹, the kinact/KI [2] is reported as 2830 M⁻¹ s⁻¹ and the IC50 [3] is reported as 3.5 µM.
`CCC1(C(=O)N[C@@H](CC(=O)O)C(=O)COc2c(F)c(F)cc(F)c2F)CC(c2ccccc2)=NO1` (stereo partly drawn) [Icc, (3S)-3-{[(5-ethyl-3-phenyl-4,5-dihydro-5-isoxazolyl)carbonyl]amino}-4-oxo-5-(2,3,5,6-tetrafluorophenoxy)pentanoic acid] showed a kinact/KI [1] of 3170 M⁻¹ s⁻¹, a kinact/KI [2] of 550 M⁻¹ s⁻¹ and an IC50 [3] of 22.5 µM.
`CCC1(C(=O)NC(CC(=O)O)C(=O)CF)CC(c2nccc3ccccc23)=NO1` (stereo not shown) [Igg, 3-({[5-Ethyl-3-(1-isoquinolinyl)-4,5-dihydro-5-isoxazolyl]carbonyl}amino)-5-fluoro-4-oxopentanoic acid] was tested, and the kinact/KI [1] was 45000 M⁻¹ s⁻¹, the kinact/KI [2] was 25000 M⁻¹ s⁻¹ and the kinact/KI [4] was 5330 M⁻¹ s⁻¹. For the same molecule, the IC50 [3] was 0.17 µM.
With `CCC1(C(=O)N[C@@H](CC(=O)O)C(=O)COc2c(F)c(F)cc(F)c2F)CC(c2cccc3ccccc23)=NO1` (stereo partly drawn) [Idd, (3S)-3-({[5-ethyl-3-(1-naphthyl)-4,5-dihydro-5-isoxazolyl]carbonyl}amino)-4-oxo-5-(2,3,5,6-tetrafluorophenoxy)pentanoic Acid] the kinact/KI [1] was 5170 M⁻¹ s⁻¹, the kinact/KI [2] was 3170 M⁻¹ s⁻¹ and the IC50 [3] was 4.25 µM.
`CCC1(C(=O)N[C@@H](CC(=O)O)C(=O)COc2c(F)c(F)cc(F)c2F)CC(COc2ccc(Cl)c3ccccc23)=NO1` (stereo partly drawn) [Iqq, (3S)-3-{[(3-{[(4-Chloro-1-naphthyl)oxy]methyl}-5-ethyl-4,5-dihydro-5-isoxazolyl)carbonyl]amino}-4-oxo-5-(2,3,5,6-tetrafluorophenoxy)pentanoic acid] gave a kinact/KI [1] of 55000 M⁻¹ s⁻¹, a kinact/KI [2] of 2330 M⁻¹ s⁻¹ and an IC50 [3] of 37 µM.
